# Reference: PubChem BioAssay (NCI)
#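 Where inhibition never reached the appropriate level, the endpoint shown equals the highest concentration tested. Otherwise, values were interpolated linearly from a five-concentration, 48-hour dose response in 96-well plates. TGI is the concentration that stops growth completely.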
# Key:
# Experiment in all cases: growth of human tumour cells (NCI), 48 h
# [1] = system: 786-0 renal
# [2] = system: BT-549 breast
# [3] = system: CAKI-1 renal
# [4] = system: CCRF-CEM leukemia
# [5] = system: COLO 205 colon
# [6] = system: EKVX NSCLC
# [7] = system: HCC-2998 colon
# [8] = system: HCT-15 colon
# [9] = system: HOP-62 NSCLC
# [10] = system: HOP-92 NSCLC
# [11] = system: HS 578T breast
# [12] = system: HT29 colon
# [13] = system: IGROV1 ovarian
# [14] = system: K-562 leukemia
# [15] = system: KM12 colon
# [16] = system: LOX IMVI melanoma
# [17] = system: M14 melanoma
# [18] = system: MALME-3M melanoma
# [19] = system: MCF7 breast
# [20] = system: MDA-MB-231 breast
# [21] = system: MDA-MB-435
# [22] = system: MDA-N
# [23] = system: MOLT-4 leukemia
# [24] = system: NCI-H23 lung
# [25] = system: NCI-H460 lung
# [26] = system: NCI-H522 lung
# [27] = system: NCI/ADR-RES ovarian
# [28] = system: OVCAR-3 ovarian
# [29] = system: OVCAR-4 ovarian
# [30] = system: OVCAR-5 ovarian
# [31] = system: OVCAR-8 ovarian
# [32] = system: PC-3 prostate
# [33] = system: RPMI-8226 leukemia
# [34] = system: SF-268 CNS
# [35] = system: SF-295 CNS
# [36] = system: SK-MEL-2 melanoma
# [37] = system: SK-MEL-28 melanoma
# [38] = system: SK-MEL-5 melanoma
# [39] = system: SK-OV-3 ovarian
# [40] = system: SN12C renal
# [41] = system: SNB-19 CNS
# [42] = system: SNB-75 CNS
# [43] = system: SR leukemia
# [44] = system: SW-620 colon
# [45] = system: T-47D breast
# [46] = system: TK-10 renal
# [47] = system: U251 CNS
# [48] = system: UACC-257 melanoma
# [49] = system: UACC-62 melanoma
# [50] = system: UO-31 renal
# [51] = system: A498 renal
# [52] = system: A549 NSCLC
# [53] = system: ACHN renal
# [54] = system: DU-145 prostate
# [55] = system: HCT-116 colon
# [56] = system: HL-60(TB) leukemia
# [57] = system: NCI-H226 lung
# [58] = system: SF-539 CNS
# [59] = system: RXF 393 renal
structure (smiles),measurement,setting,value
CCC1(O)CC(OC2CC(N(C)C)C(OC3CC(O)C(OC4CCC(=O)C(C)O4)C(C)O3)C(C)O2)c2c(cc3c(c2O)C(=O)c2c(O)ccc(O)c2C3=O)C1C(=O)OC (stereo not given),TGI,[1],0.493 µM
same,TGI,[2],1.78 µM
same,TGI,[3],< 0.01 µM
same,TGI,[4],0.0528 µM
same,TGI,[5],0.0131 µM
same,TGI,[6],0.116 µM
same,TGI,[7],< 0.0112 µM
same,TGI,[8],0.018 µM
same,TGI,[9],0.156 µM
same,TGI,[10],0.0185 µM
same,TGI,[11],0.384 µM
same,TGI,[12],< 0.0105 µM
same,TGI,[13],1.22 µM
same,TGI,[14],< 0.01 µM
same,TGI,[15],0.0994 µM
same,TGI,[16],< 0.01 µM
same,TGI,[17],0.0516 µM
same,TGI,[18],0.029 µM
same,TGI,[19],2.01 µM
same,TGI,[20],0.113 µM
same,TGI,[21],0.409 µM
same,TGI,[22],0.0251 µM
same,TGI,[23],0.0101 µM
same,TGI,[24],0.0343 µM
same,TGI,[25],< 0.01 µM
same,TGI,[26],< 0.01 µM
same,TGI,[27],0.259 µM
same,TGI,[28],0.186 µM
same,TGI,[29],0.214 µM
same,TGI,[30],10.8 µM
same,TGI,[31],0.0739 µM
same,TGI,[32],0.393 µM
same,TGI,[33],0.0109 µM
same,TGI,[34],0.208 µM
same,TGI,[35],0.441 µM
same,TGI,[36],0.0148 µM
same,TGI,[37],0.211 µM
same,TGI,[38],0.0282 µM
same,TGI,[39],13.3 µM
same,TGI,[40],1.18 µM
same,TGI,[41],2.41 µM
same,TGI,[42],0.0846 µM
same,TGI,[43],< 10 nM
same,TGI,[44],3.56 µM
same,TGI,[45],0.597 µM
same,TGI,[46],0.0339 µM
same,TGI,[47],2.22 µM
same,TGI,[48],0.0294 µM
same,TGI,[49],< 0.0132 µM
same,TGI,[50],< 0.01 µM
CCN(CC)CCCNc1[nH]ncc2cc3c(nc4ccccc43)c(C)c12,TGI,[1],17.3 µM
same,TGI,[51],28.7 µM
same,TGI,[52],26.7 µM
same,TGI,[53],21.9 µM
same,TGI,[2],32.7 µM
same,TGI,[3],> 100 µM
same,TGI,[4],21.3 µM
same,TGI,[5],23.4 µM
same,TGI,[54],24.3 µM
same,TGI,[6],23.5 µM
same,TGI,[7],23.2 µM
same,TGI,[55],17.4 µM
same,TGI,[8],30 µM
same,TGI,[56],27.1 µM
same,TGI,[9],42.2 µM
same,TGI,[11],29.2 µM
same,TGI,[12],15.8 µM
same,TGI,[13],15.7 µM
same,TGI,[14],> 100 µM
same,TGI,[15],18.5 µM
same,TGI,[16],20.6 µM
same,TGI,[17],52.3 µM
same,TGI,[18],31.4 µM
same,TGI,[19],38.4 µM
same,TGI,[20],19.4 µM
same,TGI,[21],36.1 µM
same,TGI,[22],30.8 µM
same,TGI,[23],5.43 µM
same,TGI,[57],25.3 µM
same,TGI,[24],28 µM
same,TGI,[25],18.1 µM
same,TGI,[26],16.3 µM
same,TGI,[27],> 100 µM
same,TGI,[28],28.6 µM
same,TGI,[30],50.4 µM
same,TGI,[31],24.5 µM
same,TGI,[32],25.5 µM
same,TGI,[33],31.3 µM
same,TGI,[34],20.6 µM
same,TGI,[35],32.2 µM
same,TGI,[58],34.1 µM
same,TGI,[36],> 100 µM
same,TGI,[37],32.5 µM
same,TGI,[38],38 µM
same,TGI,[39],34.3 µM
same,TGI,[40],19.9 µM
same,TGI,[41],27.5 µM
same,TGI,[42],26.4 µM
same,TGI,[44],17.4 µM
same,TGI,[45],29.4 µM
same,TGI,[46],36.2 µM
same,TGI,[47],24.4 µM
same,TGI,[48],29.5 µM
same,TGI,[49],29.4 µM
same,TGI,[50],24.5 µM
c1ccc([Si](OCCN2CC2)(c2ccccc2)c2ccccc2)cc1,TGI,[1],27.2 µM
same,TGI,[52],24.1 µM
same,TGI,[53],27.9 µM
same,TGI,[2],31.5 µM
same,TGI,[3],44.8 µM
same,TGI,[4],49.5 µM
same,TGI,[5],24.7 µM
same,TGI,[54],27.5 µM
same,TGI,[6],25.4 µM
same,TGI,[7],26.4 µM
same,TGI,[55],27.7 µM
same,TGI,[8],21.9 µM
same,TGI,[56],50.8 µM
same,TGI,[9],30 µM
same,TGI,[10],18.4 µM
same,TGI,[11],24.9 µM
same,TGI,[12],27 µM
same,TGI,[13],25.5 µM
same,TGI,[14],26.8 µM
same,TGI,[15],35.2 µM
same,TGI,[16],27.6 µM
same,TGI,[17],29.3 µM
same,TGI,[18],31.3 µM
same,TGI,[19],31.8 µM
same,TGI,[20],28 µM
same,TGI,[21],26.7 µM
same,TGI,[22],28.1 µM
same,TGI,[23],36.3 µM
same,TGI,[57],29.8 µM
same,TGI,[24],29 µM
same,TGI,[25],25 µM
same,TGI,[26],25.5 µM
same,TGI,[27],28.1 µM
same,TGI,[28],31.3 µM
same,TGI,[29],22.7 µM
same,TGI,[30],27.7 µM
same,TGI,[31],33.1 µM
same,TGI,[32],26.3 µM
same,TGI,[33],36.9 µM
same,TGI,[59],19.2 µM
same,TGI,[34],23 µM
same,TGI,[35],27.4 µM
same,TGI,[58],26.9 µM
same,TGI,[36],18.4 µM
same,TGI,[38],29.2 µM
same,TGI,[39],27.5 µM
same,TGI,[40],27.3 µM
same,TGI,[41],16 µM
same,TGI,[44],27.8 µM
same,TGI,[45],39.9 µM
same,TGI,[46],29.1 µM
same,TGI,[47],27 µM
same,TGI,[48],33.2 µM
same,TGI,[49],27.2 µM
same,TGI,[50],28.4 µM
